Test results from patent US20250242340A1, “SABRE CATALYSTS CONTAINING FLUORINATED CARBON CHAINS FOR DELIVERY OF METAL-FREE MRI CONTRAST AGENTS” (The United States of America, as represented by the …, priority 2022, published 2025).
Read-outs that look alike come from different tables or passages of the source.

Columns and labels:
[1] = Precipitation of HP pyruvate with ethyl acetate and reconstitution in D2O (Example 9); assay type: physicochemical; settings: after EtOAc precipitation and reconstitution in water (D2O); 7.5 mM fluorinated catalyst, 50 mM DMSO, 20-30 mM pyruvate, 1.8 T
Description: Precipitation and redissolution of HP [1-^13C]pyruvate, which takes place in the same NMR tube where hyperpolarization, was performed (Schmidt et al., ACS Sensors, 7(11), 3430-3439 (2022)). The SABRE samples were prepared in CD3OD, using between 20 and 30 mM sodium [1-^13C]pyruvate, 7.5 mM fluorinated SABRE catalyst, and 50 mM dimethyl sulfoxide (DMSO), as described in Examples 6 and 7. 100 μL of this solution was transferred into 5 mm NMR tube and exposed to the SABRE-SHEATH hyperpolarization conditions with the same set-up and optimum conditions described in Examples 6 and 7. The solution was located inside a 3-layer mu-metal of 3″ I.D. and 9″ depth to shield external magnetic fields, combined with a custom-made solenoid to generate a static magnetic field B0 of 0.4 μT. The NMR tubes were pressurized (110 psi, i.e., approximately 8 bar total pressure) with p-H2 bubbling through the solution at a flow of 90 scc/m to activate the catalyst and to ^13C-hyperpolarize the sodium [1-^13C]pyruvate solution. Activation of the catalyst took place for 15 min at ambient temperature and magnetic field. For polarization build-up, the sample was placed in the static magnetic field (typically about 0.4 μT) and a water bath to regulate the reaction temperature at 0° C. After polarization, the NMR tube was rapidly transferred inside the NMR spectrometer at 1.8 T and kept at room temperature. […]

[2] = Relaxation dynamics of hyperpolarized [1-13C]pyruvate in fluorous mixture (Example 25); assay type: physicochemical; settings: fluorous mixture NFBME/MeOD
Source text: (§1) In addition, the relaxation dynamics of the [1-^13C]pyruvate were also studied.
In addition, relaxation dynamics at earth field and 1.8 T are about the same as a non-fluorinated SABRE catalyst T1=9.0±1.9 s and 16.0±1.4 s, respectively.

[3] = assay type: physicochemical; settings: 23 mM sodium [1-13C]pyruvate, 7.4 mM catalyst of Example 4, 46 mM DMSO, 0.2 mL NFBME + 0.2 mL MeOD, 90 scc/m, 110 PSI, 0.4 μT, 0 °C
[4] = Relaxation dynamics of hyperpolarized [1-13C]pyruvate in methanol (Example 7); assay type: physicochemical
Source text: as §1
In addition, relaxation dynamics at earth field and 1.8 T are about the same as a non-fluorinated SABRE catalyst T1=28.9±1.6 s and 66.5±7 s, respectively.

[5] = assay type: physicochemical; settings: 20 mM sodium [1-13C]pyruvate, 7.6 mM catalyst shown in Scheme 4, 50 mM DMSO, CD3OD, 0.4 μT, 5 °C, 110 psi, 90 scc/m, 1.8 T
Description: (§2) The SABRE samples were prepared in CD3OD, using 20 mM sodium [1-^13C]pyruvate, 7.6 mM perfluorinated SABRE catalyst shown in Scheme 4, and 50 mM dimethyl sulfoxide (DMSO), as described in Examples 6 and 7. The SABRE samples were exposed to the SABRE-SHEATH hyperpolarization conditions with the same set-up and optimum conditions described in Examples 6 and 7. The NMR tubes were pressurized (110 psi, i.e., approximately 8 bar total pressure) with p-H2 bubbling through the solution at a flow of 90 scc/m to activate the catalyst and to ^13C-hyperpolarize the sodium [1-^13C]pyruvate solution. Activation of the catalyst took place for about 15 minutes at ambient temperature and magnetic field. For polarization build-up, the sample was placed in the magnetic field (typically about 0.4 μT) and a water bath at 5° C. to regulate the reaction temperature. The spectrum was acquired immediately following manual sample transfer to a 1.8 T benchtop NMR after 5 seconds, and the results are set forth in the top spectrum of FIG. 17.

[6] = Biphasic extraction of hyperpolarized pyruvate into D2O from NFBME/MeOD (Example 26); assay type: physicochemical; settings: after addition of 400 μL D2O to NFBME/MeOD sample (emulsion, bound and free pyruvate), catalyst of Example 4, 1.8 T, room temperature
Description: The hyperpolarization procedure of Example 6 was repeated using a mixture of nonafluorobutyl methyl ether (NFBME) and deuterated methanol instead of only deuterated methanol.
After the hyperpolarization procedure was completed, the sample was rapidly removed from the 0.40 μT field and transferred inside the NMR spectrometer at 1.8 T at room temperature. The NMR sample was depressurized and 400 μL of D2O was added to the solution in order to drive the hyperpolarized sodium [1-^13C]pyruvate into the aqueous phase.

[7] = assay type: physicochemical
Source text: Parahydrogen was generated using a Gas-Delivery Manifold. Ultra-high-purity hydrogen gas (Airgas) was fed into a ParaHydrogen flow cryostat (Xeus technology LTD) and enriched to about 50% parahydrogen in the presence of a spin-exchange catalyst (Fe2O3) at liquid nitrogen temperature (77K). […] The entire pH2 line was pressurized to 100 psi.
The magnetic shield condition was as follows. […] The shield was degaussed using internal homebuilt coils driven by a Variac when necessary.
MR experiments were performed using a 1 T Magritek Spinsolve benchtop NMR spectrometer.
FIG. 6 depicts, in the top curve, a single-scan HP ^13C spectrum obtained for the hyperpolarized probe. […] Enhancement is ε˜9000 and polarization is about P(^13C)˜1%.
All experiments were performed with the solution containing fluorinated catalyst, co-ligand (phenyl trifluoromethyl sulfoxide) and [1-^13C]Pyruvate in 0.6 mL CD3OD. The ratio and concentration can be further adjusted to attain better enhancement and polarization. […] The experiments were performed at room temperature, ˜100 scc/m p-H2 flow rate and 96 PSI p-H2 overpressure. The parahydrogen used in this example came from a low-cost 50% p-H2 generator. Each experiment, the p-H2 bubbling was applied for ˜1 min, the sample was quickly transferred to the 1 T NMR spectrometer for detection and the sample was then returned to the mu-metal shield to continue p-H2 bubbling for the next experiment.

[8] = Isolation of hyperpolarized pyruvate by D2O precipitation of the catalyst and filtration (Example 8); assay type: physicochemical; settings: 20% v/v D2O added, Oasis Prime HLB filter, 1.8 T NMR, procedure about 1.15 to 1.30 minutes
Description: The parahydrogen flow rate was established at 90 scc/m and pressurized to 8 bars, the mixing field was 0.4 μT, and the temperature was 0° C.
After the hyperpolarization procedure was completed, the sample was rapidly removed from the 0.40 μT field, depressurized, and 20% in volume (125 μL) of D2O was added to the solution to precipitate the perfluorinated SABRE catalyst.

[9] = Re-use of the fluorous catalyst mixture for pyruvate hyperpolarization (Example 26); assay type: physicochemical; settings: re-used catalyst mixture from 4 days earlier, fresh 23 mM pyruvate and 47 mM DMSO in 0.2 mL CD3OD
Source text: The fluorous mixture containing the perfluorinated SABRE catalyst in NFBME and MeOD was re-used for further sodium [1-^13C]pyruvate hyperpolarization.

[10] = assay type: physicochemical; settings: 40 mM sodium [1-13C]pyruvate, 6.6 mM catalyst of Example 16, 50 mM DMSO, CD3OD, 0.4 μT, 5 °C, 110 psi, 90 scc/m, 1.8 T
Description: as §2, with “40” for “20”, “6.6” for “7.6”, “of Example 16,” for “shown in Scheme 4,”, “16.” for “17.”

[11] = Example 5 text: 8 mM fluorinated catalyst (Example 4), 16 mM PTFSO, 30 mM [1-13C]pyruvate, 0.6 mL CD3OD, room temperature, ~100 scc/m, 96 PSI, 50% p-H2, 1 T NMR
[12] = FIG. 6 legend: 30 mM sodium [1-13C]pyruvate, 42 mM PTFSO, 7.8 mM Ir-F-IMes, deuterated methanol, 55 s 50% p-H2 bubbling, BT=−0.7 μT, 1 T NMR

CC(=O)C(=O)O [[1-^13C]pyruvate, Sodium [1-^13C]-pyruvate]
13C signal enhancement ε [1]: ~9000 fold | P13C [1]: ~2.17% | T1 ([2]; 1.8 T): 16.0 ± 1.4 s | T1 ([2]; relaxation at 0.4 μT): 11.3 ± 1.3 s | 13C signal enhancement ε [3]: ~38600 fold | P13C [3]: ~6.02% | T1 ([4]; catalyst of Example 4, 1.8 T): 66.5 ± 7 s | T1 ([4]; catalyst of Example 4, Earth's field): 28.9 ± 1.6 s | T1 ([4]; catalyst of Example 4, relaxation at 0.4 μT): 16.1 ± 0.9 s | 13C signal enhancement ε [5]: ~19000 fold | P13C [5]: ~4.91% | 13C signal enhancement ε [6]: ~10800 fold | P13C [6]: ~1.68% | 13C signal enhancement ε [7, 11]: ~9000 | polarization P(13C) [7, 11]: ~1% | 13C signal enhancement ε [7, 12]: ~1250 | polarization P(13C) [7, 12]: ~0.1% | HP 13C signal after catalyst precipitation and filtration [8]: no HP ^13C signal was observed in any sample | 13C signal enhancement ε [9]: ~3090 fold | P13C [9]: ~0.48% | 13C signal enhancement ε [10]: ~16900 fold | P13C [10]: ~2.17%
